Test results: patent US7709024B2, “Sustained-release formulation and uses thereof” (Solvay Pharmaceuticals B.V., priority 2005, dated 2010)

How the values were obtained:
[1] = test system: 5HT reuptake; details: therapeutic models, WO 01/14330; cited from earlier work
[2] = test system: rodents; details: cited from earlier work
[3] = in vivo; cited from earlier work
[4] = Comparative equilibrium solubility of salts of compound 1; details: pH listed with the equilibrium solubility
[5] = molecular target: D2 receptors (Homo sapiens, UniProt P14416); details: therapeutic models, WO 01/14330; cited from earlier work
D2 receptors, sequence (P14416 whole entry): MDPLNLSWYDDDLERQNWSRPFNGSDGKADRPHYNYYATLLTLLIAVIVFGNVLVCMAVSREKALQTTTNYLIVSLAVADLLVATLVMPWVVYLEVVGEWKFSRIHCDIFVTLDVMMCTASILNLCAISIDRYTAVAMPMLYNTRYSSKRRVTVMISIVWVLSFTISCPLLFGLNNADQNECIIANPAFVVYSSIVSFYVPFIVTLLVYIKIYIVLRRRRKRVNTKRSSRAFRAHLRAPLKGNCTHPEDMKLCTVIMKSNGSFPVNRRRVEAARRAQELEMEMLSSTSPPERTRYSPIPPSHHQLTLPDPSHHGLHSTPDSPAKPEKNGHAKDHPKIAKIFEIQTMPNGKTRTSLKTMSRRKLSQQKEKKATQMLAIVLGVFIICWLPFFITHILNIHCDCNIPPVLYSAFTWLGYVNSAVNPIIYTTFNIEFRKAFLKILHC

Row | SMILES | inhibitory activity against 5HT reuptake [1] | propensity to induce catalepsy [2] | activity in therapeutic models sensitive to clinically relevant antipsychotics, antidepressants, anxiolytics, and Parkinson's disease [3] | pH ([4]; listed as freebase (1)) | antagonistic activity at D2 receptors [5] | pH ([4]; listed as glucuronate (2))
1 | CC1Oc2c(cccc2N2CCN(CCCc3c[nH]c4ccc(F)cc34)CC2)NC1=O (stereo not drawn) [compound 1, 8-{4-[3-(5-fluoro-1H-indol-3-yl)-propyl]-piperazin-1-yl}-2-methyl-4H-benzo[1,4]oxazin-3-one] | inhibitory activity against 5HT reuptake | low propensity to induce catalepsy | active | 4.72 | antagonistic activity at D2 receptors | 
2 | CC1Oc2c(cccc2N2CCN(CCCc3c[nH]c4ccc(F)cc34)CC2)NC1=O (stereo not drawn) [compound 2] |  |  |  |  |  | 4.25
